In US20130096103A1, “IMIDAZOQUINOLINE COMPOUNDS” (NOVARTIS VACCINES & DIAGNOSTICS, INC., priority 2004, published 2013):

Key:
BALB/c mice [1] = experiment: In vivo adjuvant study: Env-specific serum IgG2a ELISA; settings: vaccinated day 0 and 28, sera 6-7 d after 2nd vaccination
Source text: (§1) In phosphate-buffered saline (PBS), 25 micrograms gp120dV2EnvSF162 antigen (recombinant gp120 protein derived from sequence of HIV-1 strain SF162—the V2 domain was deleted; Pharm Res. 2004 Dec. 21(12):2148-52) as mixed with 50 microliters of MF59 adjuvant, followed the by the addition of 0, 1, 5, or 25 micrograms of a small molecule immune potentiator (SMIP) and adjusted to 100 microliters with PBS. 50 microliters of the solution was subsequently injected into both the left and right tibialis anterior muscles of female BALB/c mice (Day 0), for a total volume of 100 microliters per mouse. Four weeks later (Day 28), 50 microliters of the solution was again injected into both the left and right tibialis anterior muscles of the mouse. Seven days after the second vaccination ([…]), serum samples were collected, and a day later (day 35) spleens were removed. Serum samples were assayed by Env-specific serum IgG2a ELISA and Env-specific serum IgG1 ELISA. Spleen samples were assayed by Env-specific, cytokine-producing splenic CD4 and CD8 T cells.
(§2) BALB/c mise were immunized 2× with HIV gp120 formulated in MF59 +/− the indicated SMIPs (25 μg/ml). CpG 1826 (25 μg/ml) was used as a positive control. […] post-second serum was collected from the immunized mice and the anti-gp120-specific serum IgG2a (FIG. 4A) and IgG1 (FIG. 4B) geometric mean titers (GMT) were determined. In addition, spleens were also harvested from the immunized mice and ex vivo anti-gp120-specific T cell responses (FIG. 4C) were determined by intracellular cytokine staining for IL-2 and IFN-g. Results are percentage of antigen-specific T cells expressing the indicated cytokine.

BALB/c mice [2] = experiment: In vivo adjuvant study: Env-specific serum IgG1 ELISA; settings: vaccinated day 0 and 28, sera 6-7 d after 2nd vaccination
Source text: as §1, §2

BALB/c mice [3] = experiment: In vivo adjuvant study: Env-specific cytokine-producing splenic CD4 and CD8 T cells; settings: spleens 6-7 d after 2nd vaccination
Source text: as §1, §2

[4] = Pope et al. Cellular Immunology 162: 333-339 (1995); cited from earlier work
[5] = 1 μg added to gp120dV2/MF59 base vaccine
[6] = 5 μg added to gp120dV2/MF59 base vaccine
[7] = 25 μg added to gp120dV2/MF59 base vaccine

Molecule | Env-spec IgG2a titer, Geo mean (BALB/c mice [1]; [5]) | Env-spec IgG2a titer, Geo mean (BALB/c mice [1]; [6]) | Env-spec IgG2a titer, Geo mean (BALB/c mice [1]; [7]) | Env-spec IgG1 titer, Geo mean (BALB/c mice [2]; [5]) | Env-spec IgG1 titer, Geo mean (BALB/c mice [2]; [6]) | Env-spec IgG1 titer, Geo mean (BALB/c mice [2]; [7]) | Env-spec CD4 (%) IFN-γ+ (BALB/c mice [3]; [5]) [%] | Env-spec CD4 (%) IL-2+ (BALB/c mice [3]; [5]) [%] | Env-spec CD8 (%) IFN-γ+ (BALB/c mice [3]; [5]) [%] | Env-spec CD8 (%) IL2+ (BALB/c mice [3]; [5]) [%] | Env-spec CD4 (%) IFN-γ+ (BALB/c mice [3]; [6]) [%] | Env-spec CD4 (%) IL-2+ (BALB/c mice [3]; [6]) [%] | Env-spec CD8 (%) IFN-γ+ (BALB/c mice [3]; [6]) [%] | Env-spec CD8 (%) IL2+ (BALB/c mice [3]; [6]) [%] | Env-spec CD4 (%) IFN-γ+ (BALB/c mice [3]; [7]) [%] | Env-spec CD4 (%) IL-2+ (BALB/c mice [3]; [7]) [%] | Env-spec CD8 (%) IFN-γ+ (BALB/c mice [3]; [7]) [%] | Env-spec CD8 (%) IL2+ (BALB/c mice [3]; [7]) [%] | concentration causing useful production of TNF-α [4] [µM]
CCCSc1nc2c(N)nc3ccccc3c2n1CC(C)C [Example 11, 1-(2-methylpropyl)-2-(propylthio)-1H-imidazo[4,5-c]quinolin-4-amine] | 512 | 2922 | 6507 | 35177 | 33477 | 34199 | 0.04 | 0.17 | 0.08 | 0.17 | 0.04 | 0.42 | 0.19 | 0.22 | 0.04 | 0.42 | 0.18 | 0.22 | –
CCCN(C)c1nc2c(N)nc3ccccc3c2n1CC(C)(C)O [Example 19, 1-{4-amino-2-[methyl(propyl)amino]-1H-imidazo[4,5-c]quinolin-1-yl}-2-methylpropan-2-ol] | 1215 | 10104 | 18733 | 30536 | 29502 | 38255 | 0.07 | 0.14 | 0.21 | 0.14 | 0.04 | 0.40 | 0.35 | 0.37 | 0.29 | 0.76 | 0.07 | 0.10 | –
C=CCn1c(=O)n([C@@H]2O[C@H](CO)[C@@H](O)[C@H]2O)c2nc(N)[nH]c(=O)c21 [Loxoribine] | – | – | – | – | – | – | – | – | – | – | – | – | – | – | – | – | – | – | 300
ODN-1826 [reference compound] | – | – | 201306 | – | – | 30188 | – | – | – | – | – | – | – | – | 0.32 | 0.47 | 0.15 | 0.12 | –
